# Measured values taken from ChEMBL document CHEMBL1201862, “PubChem BioAssay data set” (2004).
#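 Where inhibition never reached the appropriate level, the endpoint shown equals the highest concentration tested. Otherwise, values were interpolated linearly from a five-concentration, 48-hour dose response in 96-well plates. Here, GI50 denotes the concentration required for 50% inhibition of growth.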 The source made the active and inactive calls. No stated cut-off is given here; in the data, active = GI50 up to about 1.1 µM and inactive = higher.
# Columns and labels:
# Experiment in all cases: inhibition of tumour cell growth, NCI panel, 48 h
# K562 = test system: K562
# SK-MEL-28 = test system: SK-MEL-28
# NCI-H23 = test system: NCI-H23
# HCC 2998 = test system: HCC 2998
# EKVX = test system: EKVX
# MDA-N = test system: MDA-N
# NCI/ADR-RES = test system: NCI/ADR-RES
# LOX IMVI = test system: LOX IMVI
# HT-29 = test system: HT-29
# MOLT-4 = test system: MOLT-4
# CCRF-CEM = test system: CCRF-CEM
# ACHN = test system: ACHN
# SF-539 = test system: SF-539
# NCI-H460 = test system: NCI-H460
# M14 = test system: M14
# MDA-MB-435 = test system: MDA-MB-435
# KM12 = test system: KM12
# PC-3 = test system: PC-3
# U-251 = test system: U-251
# MDA-MB-231 = test system: MDA-MB-231
# T47D = test system: T47D
# UO-31 = test system: UO-31
# HOP-62 = test system: HOP-62
# DU-145 = test system: DU-145
# OVCAR-3 = test system: OVCAR-3
# UACC-257 = test system: UACC-257
# A549 = test system: A549
# Malme-3M = test system: Malme-3M
# HL-60 = test system: HL-60
# SF-295 = test system: SF-295
# SN12C = test system: SN12C
# SF-268 = test system: SF-268
# HCT-15 = test system: HCT-15
# UACC-62 = test system: UACC-62
# HCT-116 = test system: HCT-116
# OVCAR-5 = test system: OVCAR-5
# NCI-H226 = test system: NCI-H226
# SNB-19 = test system: SNB-19
# Hs-578T = test system: Hs-578T
# 786-0 = test system: 786-0
# RXF 393 = test system: RXF 393
# SK-MEL-5 = test system: SK-MEL-5
# SNB-75 = test system: SNB-75
# TK-10 = test system: TK-10
# SW-620 = test system: SW-620
# IGROV-1 = test system: IGROV-1
# COLO 205 = test system: COLO 205
# RPMI-8226 = test system: RPMI-8226
# CAKI-1 = test system: CAKI-1
# MCF7 = test system: MCF7
# OVCAR-8 = test system: OVCAR-8
# NCI-H522 = test system: NCI-H522
# A498 = test system: A498
# SR = test system: SR
# OVCAR-4 = test system: OVCAR-4
# SK-MEL-2 = test system: SK-MEL-2
compound,measurement,setting,value
COc1cc2c(c(OC)c1OC)C(=O)[C@@H](O)[C@H]2NC(N)=O,GI50,K562,> 100 µM (inactive)
same,GI50,SK-MEL-28,> 100 µM (inactive)
same,GI50,NCI-H23,> 100 µM (inactive)
same,GI50,HCC 2998,> 100 µM (inactive)
same,GI50,EKVX,> 100 µM (inactive)
same,GI50,MDA-N,> 100 µM (inactive)
same,GI50,NCI/ADR-RES,> 100 µM (inactive)
same,GI50,LOX IMVI,> 100 µM (inactive)
same,GI50,HT-29,> 100 µM (inactive)
same,GI50,MOLT-4,> 100 µM (inactive)
same,GI50,CCRF-CEM,> 100 µM (inactive)
same,GI50,ACHN,> 100 µM (inactive)
same,GI50,SF-539,> 100 µM (inactive)
same,GI50,NCI-H460,> 100 µM (inactive)
same,GI50,M14,> 100 µM (inactive)
same,GI50,MDA-MB-435,> 100 µM (inactive)
same,GI50,KM12,> 100 µM (inactive)
same,GI50,PC-3,> 100 µM (inactive)
same,GI50,U-251,> 100 µM (inactive)
same,GI50,MDA-MB-231,> 100 µM (inactive)
same,GI50,T47D,31.6 µM (inactive)
same,GI50,UO-31,> 100 µM (inactive)
same,GI50,HOP-62,> 100 µM (inactive)
same,GI50,DU-145,> 100 µM (inactive)
same,GI50,OVCAR-3,> 100 µM (inactive)
same,GI50,UACC-257,> 100 µM (inactive)
same,GI50,A549,> 100 µM (inactive)
same,GI50,Malme-3M,> 100 µM (inactive)
same,GI50,HL-60,> 100 µM (inactive)
same,GI50,SF-295,> 100 µM (inactive)
same,GI50,SN12C,> 100 µM (inactive)
same,GI50,SF-268,> 100 µM (inactive)
same,GI50,HCT-15,> 100 µM
same,GI50,UACC-62,83.4 µM (inactive)
same,GI50,HCT-116,> 100 µM (inactive)
same,GI50,OVCAR-5,> 100 µM (inactive)
same,GI50,NCI-H226,> 100 µM (inactive)
same,GI50,SNB-19,> 100 µM (inactive)
same,GI50,Hs-578T,> 100 µM (inactive)
same,GI50,786-0,> 100 µM (inactive)
same,GI50,RXF 393,> 100 µM (inactive)
same,GI50,SK-MEL-5,> 100 µM (inactive)
same,GI50,SNB-75,> 100 µM (inactive)
same,GI50,TK-10,> 100 µM (inactive)
same,GI50,SW-620,> 100 µM (inactive)
same,GI50,IGROV-1,> 100 µM (inactive)
same,GI50,COLO 205,> 100 µM (inactive)
same,GI50,RPMI-8226,> 100 µM (inactive)
same,GI50,CAKI-1,> 100 µM (inactive)
same,GI50,MCF7,> 100 µM (inactive)
same,GI50,OVCAR-8,> 100 µM (inactive)
same,GI50,NCI-H522,> 100 µM (inactive)
[O-][n+]1c2ccccc2[n+]([O-])c2cc(Br)ccc21,GI50,K562,4.63 µM (inactive)
same,GI50,SK-MEL-28,54.1 µM (inactive)
same,GI50,NCI-H23,21.5 µM (inactive)
same,GI50,HCC 2998,16.5 µM (inactive)
same,GI50,EKVX,16.7 µM (inactive)
same,GI50,NCI/ADR-RES,16.1 µM (inactive)
same,GI50,LOX IMVI,2.99 µM (inactive)
same,GI50,HT-29,18.6 µM (inactive)
same,GI50,MOLT-4,0.144 µM (active)
same,GI50,CCRF-CEM,0.0507 µM (active)
same,GI50,ACHN,4.81 µM (inactive)
same,GI50,SF-539,13.9 µM (inactive)
same,GI50,NCI-H460,10.4 µM (inactive)
same,GI50,M14,17.2 µM (inactive)
same,GI50,MDA-MB-435,18.2 µM (inactive)
same,GI50,KM12,12.6 µM (inactive)
same,GI50,A498,17.9 µM (inactive)
same,GI50,U-251,14.6 µM (inactive)
same,GI50,MDA-MB-231,24.4 µM (inactive)
same,GI50,T47D,10.2 µM (inactive)
same,GI50,UO-31,9.48 µM (inactive)
same,GI50,HOP-62,45 µM (inactive)
same,GI50,SR,2.02 µM (inactive)
same,GI50,DU-145,24.7 µM (inactive)
same,GI50,OVCAR-3,2.21 µM (inactive)
same,GI50,UACC-257,17.9 µM (inactive)
same,GI50,A549,10.8 µM (inactive)
same,GI50,OVCAR-4,18.9 µM (inactive)
same,GI50,Malme-3M,23.2 µM (inactive)
same,GI50,HL-60,1.31 µM (inactive)
same,GI50,SF-295,20.6 µM (inactive)
same,GI50,SN12C,21.5 µM (inactive)
same,GI50,SF-268,13.7 µM (inactive)
same,GI50,HCT-15,13.3 µM
same,GI50,UACC-62,18.3 µM (inactive)
same,GI50,HCT-116,70.1 µM (inactive)
same,GI50,OVCAR-5,27.8 µM (inactive)
same,GI50,NCI-H226,21.6 µM (inactive)
same,GI50,SNB-19,33.2 µM (inactive)
same,GI50,Hs-578T,35.2 µM (inactive)
same,GI50,786-0,10.1 µM (inactive)
same,GI50,RXF 393,18.1 µM (inactive)
same,GI50,SK-MEL-5,13.3 µM (inactive)
same,GI50,SK-MEL-2,29 µM (inactive)
same,GI50,SNB-75,26.3 µM (inactive)
same,GI50,TK-10,26.1 µM (inactive)
same,GI50,SW-620,20.6 µM (inactive)
same,GI50,IGROV-1,5.81 µM (inactive)
same,GI50,COLO 205,20.7 µM (inactive)
same,GI50,RPMI-8226,8.05 µM (inactive)
same,GI50,CAKI-1,5.41 µM (inactive)
same,GI50,MCF7,11.3 µM (inactive)
same,GI50,OVCAR-8,14.8 µM (inactive)
same,GI50,NCI-H522,12.9 µM (inactive)
